Results taken from US7714014B2, “Targeting GLI proteins in human cancer by small molecules” (The Regents of the University of California, priority 2005, dated 2010).
“Also recorded” adds a separate entry of the source.

How the values were obtained:
[1] = test system: Dvl-3, cytosolic β-catenin, Survivin in colon cancer cells SW480, HT29, and CaCO2; assay: Western blot of canonical Wnt signaling components; format: cell-based, human; settings: 30 μM, 2 days; for Dvl-3 and cytosolic beta-catenin levels (Western blot): SW480, HT29, CaCO2
Experimental: (§1) Whole proteins from cell cultures with or without treatments with small molecule compounds (30 μM for 2-3 days) were prepared using standard protocols (Pierce Biotechnology, Rockford, Ill.). Protein concentrations were measured using Bio-Rad Protein Assay reagent. Whole cell lysate protein (5-20 ug) were boiled for 5 min and separated by 10-20% SDS-PAGE. Proteins were transferred to an Immobilon-P membrane (Millipore Corp., Bedford, Mass.) using semi-dry transfer cell (Bio-Rad; Benicia, Calif.). The membranes were blocked with 5% nonfat milk powder and 0.1% Tween 20 in Tris-buffer saline overnight at 4° C. and then incubated with primary antibody for 1 h at room temperature. Membranes were washed in 5% nonfat milk powder and 0.1% Tween 20 in Tris-buffer saline for three 10-min periods. Horseradish peroxidase-conjugated goat anti-rabbit or donkey anti-mouse antibodies were used as secondary antibodies. Proteins were visualized with chemiluminescence luminol reagents (Santa Cruz Bio-technology). Anti-Dvl-3, and anti-Survivin, antibodies were from Santa Cruz Biotechnology (Santa Cruz, Calif.). Anti-Caspase3 antibody was from Oncogene (Cambridge, Mass.). Anti-β-Actin antibody was from Sigrna-Aldrich Corp. (St. Louis, Mo.). Anti-β-catenin antibody was from Transduction Laboratories (Lexington, Ky.). Anti-Cytochrome c antibody was from BD Biosciences (San Diego, Calif.). For detecting alteration of β-catenin cytosolic extracts were prepared and examined as described previously in the publications from our lab.

[2] = test system: Dvl-3, cytosolic β-catenin, Survivin in NSCLC cells H460, A549, and H838; assay: Western blot of canonical Wnt signaling components; format: cell-based, human; settings: 30 μM, 2 days; for Dvl-3 and cytosolic beta-catenin levels (Western blot): H460, A549, H838
Experimental: as §1

[3] = test system: human hepatocellular carcinoma cell lines HEPG2 and SK-Hep-1; assay: Cell survival assay (crystal violet); format: cell-based; settings: for cell killing: 50 μM
Experimental: Typically, the small molecule compounds of the present invention were dissolved in DMSO at a concentration of 30 mM. The small molecule compounds were then tested under cell culture conditions at different concentrations ranging from 0, 10, 30, 50, to 100 uM. To determine cell survival after treatment, the cells were incubated with the small molecule compounds in 6-well plates for about 3 days. After removal of the cell culture medium, 1-ml of 0.5% crystal violet solution (prepared in 20% ethanol and 20% methanol) was added to stain the cells for 5 min. Then the crystal violet solution was rinsed clean with tap water. Cell survival was estimated based on the density of crystal stained plates.
The cell-based cytotoxicity assay described herein was used to determine the effect of small molecule compounds FN1-5 and FN1-8 in the human hepatocellular carcinoma cell lines HEPG2 and SK-Hep-1. Viability of these cells was analyzed after treatment with 10, 30 and 50 μM FN1-5 or FN1-8.

[4] = test system: GLI1- and GLI2-induced transcription in Panc4.21 pancreatic cancer cells; assay: 6xGLI BS-luciferase reporter assay; format: cell-based, human; settings: for 6xGLI BS-luciferase activity (TAFII31 co-transfected with GLI1 or GLI2): Panc4.21, 20 μM for 16-20 hours; for 6xGLI BS-luciferase activity (GLI1- or GLI2-induced): Panc4.21, 20 μM, 16-20 hours
Experimental: One day before transfection, cells (1×10^5) were plated in 12-well plates with growth medium without antibiotics. When cells reached 80-90% of confluence they were co-transfected using 0.5 μg of each promoter construct in pGL3Basic vector and 0.025 μg pRL-TK Vector (Promega; Madison, Wis.) containing Renilla Luciferase as an internal control for the transformation efficiency. Lipofectamine 2000™ (Invitrogen Life Technologies) was used to mediate transfection for about 6 hours. […] Briefly, cells were lysed in a lysis buffer and Firefly and Renilla Luciferase activities in cells of each well, were measured using Dual-Luciferase Assay System (Promega) and an illuminometer. The measured luciferase activities were normalized to pRL-TK Vector activity and were given relative to the basal activity of empty pGL3-Basic Vector, which was set to unity. The data shown represent mean values (±S.D.). All measurements were performed in triplicate and repeated in at least three independent experiments. The human Wnt-2 promoter-luciferase construct, the human SOCS3 promoter-Luciferase construct and the human Gremlin promoter-luciferase construct were cloned and characterized in the laboratory of Dr. Jablons at the University of California, San Francisco (San Francisco, Calif.; He et al., Biochem Biophy Res Comm, 2003; and unpublished data). The 6GLI-TKO-luciferase construct (containing 6 repeats of consensus GLI DNA binding sequence) was kindly provided by Dr. Matthias Hebrok's laboratory at the University of California, San Francisco (San Francisco, Calif.).
To further examine the specificity of the small molecule compounds FN1-5 and FN1-8 to inhibit Hh/Gli signaling pathways, GLI-dependent transcription in the absence and presence of these compounds was also determined in pancreatic cancer cells.
This finding also provides a method for inhibiting GLI1- and GLI2-dependent transcription in a cell.
The TAFII31 expression plasmid contained the full-length TAFII31 cDNA generated by PCR cloned into the EcoRI (5′) and BamHI (3′) sites of a mammalian expression vector containing a c-Myc tag (pCDNA3.1 (−)B. The sequence of TAFII31 corresponds to GenBank Accession No. U25112.

[5] = test system: Dvl-3 and cytosolic β-catenin in HT29 tumor; assay: Western blot of cytosolic proteins from xenograft tumors; format: in vivo, mouse; settings: HT29 xenograft tumor (negative control)
Experimental: (§2) To examine whether the lead compound FN1-8 suppressed tumor growth through inhibition of the Wnt signaling pathway in vivo, Western blot analysis of cytosolic proteins isolated from the H460 and HT29 xenograft tumors was performed. GAPDH served as a control. This Western Blot analysis was performed using a “pooled” tumor from two randomly selected mice of each group with reasonable size tumors.

[6] = test system: Dvl-3 and cytosolic beta-catenin in H460 tumor; assay: as above; format: in vivo, mouse
Experimental: as §2

Row | SMILES | Dvl-3 and cytosolic beta-catenin levels (Western blot) [1] | Dvl-3 and cytosolic beta-catenin levels (Western blot) [2] | cell killing [3] | 6xGLI BS-luciferase activity (TAFII31 co-transfected with GLI1 or GLI2) [4] | 6xGLI BS-luciferase activity (GLI1- or GLI2-induced) [4] | Dvl-3 and cytosolic β-catenin levels in tumor [5] | Dvl-3 and cytosolic beta-catenin expression in tumor [6] | Survivin level (Western blot) [1] | Dvl-3 and cytosolic β-catenin levels (Western blot) ([1]; HT29 cells only) | Survivin level (Western blot) [2] | cell killing potency compared with FN1-5 [3]
1 | O=C(NCCCCCO)C1C(c2ccccc2)=NN(c2ccccc2)C1c1ccccc1 (stereo not shown) [FN1-5, N-(5-Hydroxypentyl)-1,3,5-triphenyl-4,5-dihydro-pyrazole-4-carboxyamide] | suppress canonical Wnt signaling | suppress canonical Wnt signaling | dramatic cell killing | significantly reduced | significantly reduced level of luciferase activity |  |  |  |  |  | 
2 | O=C(NCCc1ccc(O)cc1)C1C(c2ccccc2)=NN(c2ccccc2)C1c1ccccc1 (stereo not shown) [FN1-8, N-(2-(4-Hydroxyphenyl)ethyl)-1,3,5-triphenyl-4,5-dihydro-pyrazole-4-carboxyamide] | dramatic down-regulation; also recorded: suppress canonical Wnt signaling | dramatic down-regulation; also recorded: suppress canonical Wnt signaling | dramatic cell killing | significantly reduced | significantly reduced level of luciferase activity | no noticeable changes | down-regulated | down-regulated | no down-regulation | down-regulated | more potent
